Values of other authors in PubChem BioAssay AID1259409 (Chemical Carcinogenesis Research Information System (CCRIS), 2018).

System: rodent chemically induced tumor inhibition, incidence and multiplicity
Assay: CCRIS tumor inhibitor studies

**Q.** Which results are given for O=C(OC[C@@H]1O[C@H](OC(=O)c2cc(O)c(O)c(OC(=O)c3cc(O)c(O)c(O)c3)c2)[C@@H](OC(=O)c2cc(O)c(O)c(OC(=O)c3cc(O)c(O)c(O)c3)c2)[C@H](OC(=O)c2cc(O)c(O)c(OC(=O)c3cc(O)c(O)c(O)c3)c2)[C@H]1OC(=O)c1cc(O)c(O)c(OC(=O)c2cc(O)c(O)c(O)c2)c1)c1cc(O)c(O)c(OC(=O)c2cc(O)c(O)c(O)c2)c1?
**A.** tumour outcome (control, treated, inhibition, significance) (Carcinogen: 7,12-DIMETHYLBENZ[A]ANTHRACENE, 57-97-6, Dose [Inhibitor]: 0, 17 MG 2/WK FOR 20 WK APPLIED 20 MIN PRIOR TO EACH PROMOTER DOSE (STUDY DURATION: 22 WK), Route [Inhibitor]: DERMAL, Species: (36,?)/(36,?), Strain/Sex: CF-1/FEMALE, Target Tissue: Type of Lesion: SKIN: PAPILLOMA, Dose [Carcinogen]: 25.6 UG IN 0.2 ML ACETONE ONCE, Promoter: 12-O-TETRADECANOYLPHORBOL-13-ACETATE, 16561-29-8): 90%, 65%, 28%, not calculated; tumour outcome (control, treated, inhibition, significance) (Carcinogen: 7,12-DIMETHYLBENZ[A]ANTHRACENE, 57-97-6, Dose [Inhibitor]: 0, 20 UMOL IN 0.4 ML ACETONE 20 MIN PRIOR TO EACH PROMOTER DOSE (STUDY DURATION: 47 WK), Route [Inhibitor]: DERMAL, Species: MOUSE, Strain/Sex: CF-1/FEMALE, Target Tissue: Type of Lesion: SKIN: CARCINOMA, Dose [Carcinogen]: 100 NMOL IN 0.2 ML ACETONE ONCE): 66%, 0%, 100%, not calculated; tumour outcome (control, treated, inhibition, significance) (Carcinogen: 7,12-DIMETHYLBENZ[A]ANTHRACENE, 57-97-6, Dose [Inhibitor]: 0, 20 UMOL IN 0.4 ML ACETONE 20 MIN PRIOR TO EACH PROMOTER DOSE (STUDY DURATION: 47 WK), Route [Inhibitor]: DERMAL, Species: MOUSE, Strain/Sex: CF-1/FEMALE, Target Tissue: Type of Lesion: SKIN: PAPILLOMA, Dose [Carcinogen]: 100 NMOL IN 0.2 ML ACETONE ONCE): 94%, 23%, 76%, not calculated; tumour outcome (control, treated, inhibition, significance) (Carcinogen: 7,12-DIMETHYLBENZ[A]ANTHRACENE, 57-97-6, Dose [Inhibitor]: 0, 34 MG 2/WK FOR 2 WK APPLIED 20 MIN PRIOR TO EACH TPA DOSE (STUDY DURATION: 22 WK), Route [Inhibitor]: DERMAL, Species: MOUSE, Strain/Sex: SENCAR/FEMALE, Target Tissue: Type of Lesion: SKIN: PAPILLOMA, Dose [Carcinogen]: 6.4 UG IN 0.2 ML ACETONE ONCE, Promoter: 12-O-TETRADECANOYLPHORBOL-13-ACETATE, 16561-29-8, MEZEREIN, 34807-41-5, Promoter: 12-O-TETRADECANOYLPHORBOL-13-ACETATE, 16561-29-8, MEZEREIN, 34807-41-5): 90%, 96%, -7%, not calculated; tumour outcome (control, treated, inhibition, significance) (Carcinogen: 7,12-DIMETHYLBENZ[A]ANTHRACENE, 57-97-6, Dose [Inhibitor]: 0, 34 MG 2/WK FOR 18 WK APPLIED 20 MIN PRIOR TO EACH MEZEREIN DOSE (STUDY DURATION: 22 WK), Route [Inhibitor]: DERMAL, Species: MOUSE, Strain/Sex: SENCAR/FEMALE, Target Tissue: Type of Lesion: SKIN: PAPILLOMA, Dose [Carcinogen]: 6.4 UG IN 0.2 ML ACETONE ONCE, Promoter: 12-O-TETRADECANOYLPHORBOL-13-ACETATE, 16561-29-8, MEZEREIN, 34807-41-5, Promoter: 12-O-TETRADECANOYLPHORBOL-13-ACETATE, 16561-29-8, MEZEREIN, 34807-41-5): 90%, 25%, 72%, not calculated; tumour outcome (control, treated, inhibition, significance) (Carcinogen: (+/-)-7BETA,8ALPHA-DIHYDROXY-9ALPHA,10ALPHA-EPOXY-7,8,9,10- TETRAHYDROBENZO[A]PYRENE, 58917-67-2, Dose [Inhibitor]: 3000 NMOL IN 0.2 ML ACETONE 1/D FOR 7 D (STUDY DURATION: 18 WK), Route [Inhibitor]: DERMAL, Species: MOUSE, Strain/Sex: SENCAR/FEMALE, Target Tissue: Type of Lesion: SKIN: TUMOR, Dose [Carcinogen]: 200 NMOL IN 0.2 ML ACETONE ONCE 30 MIN POST LAST INHIBITOR DOSE, Promoter: 12-O-TETRADECANOYLPHORBOL-13-ACETATE, 16561-29-8): 75%, 60%, 20%, not significant; tumour outcome (control, treated, inhibition, significance) (Carcinogen: BENZO[A]PYRENE, 50-32-8, Dose [Inhibitor]: 1% AQUEOUS SOLUTION 3/WK FOR A TOTAL OF 80 APPLICATIONS FOLLOWED BY AT LEAST 365 D OBSERVATION PERIOD (STUDY DURATION: 5, Route [Inhibitor]: DERMAL, Species: MOUSE, Strain/Sex: CD-1/MALE, FEMALE, Target Tissue: Type of Lesion: SKIN: CARCINOMA, SQUAMOUS CELL PAPILLOMA, SEBACEOUS ADENOMA, BASAL CELL TUMOR, KERATOACANTHOMA, Dose [Carcinogen]: 0.53-0.6 MG ONCE PRIOR TO START OF AGENT TREATMENT, Promoter: NONE USED): 17/50 (34%), 15/50 (30%), 12%, not significant; tumour outcome (control, treated, inhibition, significance) (Carcinogen: BENZO[A]PYRENE, 50-32-8, Dose [Inhibitor]: 1% IN DIET BEGINNING 45 D PRIOR TO CARCINOGEN (STUDY DURATION: 36 WK), Route [Inhibitor]: ORAL, Species: MOUSE, Strain/Sex: SENCAR/FEMALE, Target Tissue: Type of Lesion: FORESTOMACH: PAPILLOMA, Dose [Carcinogen]: 100 MG/KG IN 0.2 ML CORN OIL 2/WK FOR 4 WK, Promoter: NONE USED): 27/30 (90%), 19/30 (63%), 30%, not calculated; tumour outcome (control, treated, inhibition, significance) (Carcinogen: BENZO[A]PYRENE, 50-32-8, Dose [Inhibitor]: 1% IN DIET BEGINNING 45 D PRIOR TO CARCINOGEN (STUDY DURATION: 36 WK), Route [Inhibitor]: ORAL, Species: MOUSE, Strain/Sex: SENCAR/FEMALE, Target Tissue: Type of Lesion: LUNG: ADENOMA, Dose [Carcinogen]: 100 MG/KG IN 0.2 ML CORN OIL ONCE, Promoter: NONE USED): 27/30 (90%), 18/30 (60%), 33%, not calculated; tumour outcome (control, treated, inhibition, significance) (Carcinogen: DIMETHYLBENZ[A]ANTHRACENE, 57-97-6, Dose [Inhibitor]: 1% IN DIET BEGINNING 45 D PRIOR TO CARCINOGEN DOSE AND CONTINUED FOR 10 D POST CARCINOGEN (STUDY DURATION: 16 WK), Route [Inhibitor]: ORAL, Species: MOUSE, Strain/Sex: SENCAR/FEMALE, Target Tissue: Type of Lesion: SKIN: PAPILLOMA, Dose [Carcinogen]: 10 UG IN 0.2 ML ACETONE ONCE, Promoter: TPA, 16561-29-8): 30/30 (100%), 30/30 (100%), 0%, not calculated; tumour outcome (control, treated, inhibition, significance) (Carcinogen: UV IRRADIATION, Dose [Inhibitor]: 0, 200 UG IN 200 µL ACETONE 3/WK FOR DURATION OF STUDY BEGINNING 2 WK PRIOR TO UV IRRADIATION (STUDY DURATION: 29 WK), Route [Inhibitor]: DERMAL, Species: MOUSE, Strain/Sex: BALB/CANNTACFBR/FEMALE, Target Tissue: Type of Lesion: SKIN: TUMOR, Dose [Carcinogen]: 6.94 J/M2/SEC 30 MIN/D 5 D/WK FOR 17.5 WK, Promoter: NONE USED): 75%, 42%, 44%, p=0.028
